Results on twelve compounds are retold here after PMC8119466, “A screen of FDA-approved drugs identifies inhibitors of protein tyrosine phosphatase 4A3 (PTP4A3 or PRL-3)” (Scientific Reports, 2021).

Common to all, as to type: biochemical
Conditions in all cases: FDA-approved drug screen; activity compared to DMSO

The target in one assay is T1, recombinant PRL-2 (Homo sapiens, UniProt Q12974).
T1 construct: 6xHis (N, cleaved yes); made in house; host or cells: E. coli One Shot BL21 Star
T1 sequence (Q12974 1-167): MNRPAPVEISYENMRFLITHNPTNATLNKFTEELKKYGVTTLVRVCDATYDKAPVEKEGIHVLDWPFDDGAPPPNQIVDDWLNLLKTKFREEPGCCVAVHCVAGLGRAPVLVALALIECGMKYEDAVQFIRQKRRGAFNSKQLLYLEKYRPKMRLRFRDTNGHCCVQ
Briefly: In vitro phosphatase assay (DiFMUP hydrolysis), PRL-2.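 Further: PRL-2 activity read as DiFMUP hydrolysis after 20 min at room temperature with drug, enzyme first pre-reduced at 4 °C for 20 min.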

In a further assay the target is T2, recombinant PRL-1 (Homo sapiens, UniProt Q93096).
T2 construct: 6xHis (N, cleaved yes); made in house; host or cells: E. coli One Shot BL21 Star
T2 sequence (Q93096 1-173): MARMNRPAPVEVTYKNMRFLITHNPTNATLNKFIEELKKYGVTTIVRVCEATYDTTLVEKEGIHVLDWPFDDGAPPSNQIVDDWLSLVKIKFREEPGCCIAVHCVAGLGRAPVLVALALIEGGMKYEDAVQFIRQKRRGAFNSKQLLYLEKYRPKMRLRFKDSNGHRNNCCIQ
Briefly: In vitro phosphatase assay (DiFMUP hydrolysis), PRL-1. Further: test concentration or dose not given here.

A further assay concerns the target T3, recombinant PRL-3 (Homo sapiens, UniProt O75365).
T3 construct: 6xHis (N, cleaved yes); made in house; host or cells: E. coli One Shot BL21 Star
The experiment in a line: In vitro phosphatase assay (DiFMUP hydrolysis), PRL-3. Further: test concentration or dose not given here.

SMILES strings stand for the structures. Structures can show the parent of a compound that is named as a salt.

T3 sequence (O75365 whole entry): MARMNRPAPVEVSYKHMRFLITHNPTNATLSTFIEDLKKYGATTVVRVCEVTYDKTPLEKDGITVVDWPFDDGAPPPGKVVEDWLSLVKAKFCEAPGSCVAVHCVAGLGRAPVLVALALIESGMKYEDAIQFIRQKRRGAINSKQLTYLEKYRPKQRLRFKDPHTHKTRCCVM
Procedure for recombinant PRL-1: Briefly, protein was diluted in reaction buffer and allowed to incubate at 4 °C for 20 min to allow for full reduction of the active site. DiFMUP, drug, and protein were added, and plates were incubated for 20 min at room temperature. Fluorescence intensities were measured on a Cytation 5 plate reader (Biotek) at an EX:360 nm and EM:460 nm. […] Inhibition selectivity for PRLs over a panel of other phosphatases was determined using PhosphataseProfiler (Eurofins, Cat # PP260).

As to `Cc1ccc(NC(=O)C2(c3ccc4c(c3)OC(F)(F)O4)CC2)nc1-c1cccc(C(=O)O)c1` [VX-809 (Lumacaftor)], the “% Phosphatase Activity (compared to DMSO) PRL-2” value on recombinant PRL-2 was 96%. In addition, the “% Phosphatase Activity (compared to DMSO) PRL-1” value at recombinant PRL-1 is 112%. Also, the “% Phosphatase Activity (compared to DMSO) PRL-3” value on recombinant PRL-3 is 90%.
With `CC(C)[C@H](N)C(=O)OCCOCn1cnc2c(=O)nc(N)[nH]c21.Cl` [Valaciclovir HCl], the “% Phosphatase Activity (compared to DMSO) PRL-2” value on recombinant PRL-2 is recorded as 102%. Further, the “% Phosphatase Activity (compared to DMSO) PRL-1” value at recombinant PRL-1 is reported as 97%. In addition, on recombinant PRL-3, the “% Phosphatase Activity (compared to DMSO) PRL-3” value turned out to be 98%.
For `Cc1onc(-c2ccccc2)c1-c1ccc(S(N)(=O)=O)cc1` [Valdecoxib], at recombinant PRL-2, the “% Phosphatase Activity (compared to DMSO) PRL-2” value amounted to 103%. In addition, the “% Phosphatase Activity (compared to DMSO) PRL-1” value at recombinant PRL-1 is listed as 97%. In addition, the “% Phosphatase Activity (compared to DMSO) PRL-3” value on recombinant PRL-3 is reported as 80%.
For the compound `CC(C)[C@H](N)C(=O)OCC(CO)OCn1cnc2c(=O)nc(N)[nH]c21` (stereo partly drawn) [Valganciclovir HCl], the “% Phosphatase Activity (compared to DMSO) PRL-2” value at recombinant PRL-2 was determined as 97%. Further, the “% Phosphatase Activity (compared to DMSO) PRL-1” value on recombinant PRL-1 was determined as 103%. The “% Phosphatase Activity (compared to DMSO) PRL-3” value on recombinant PRL-3 amounted to 75%.
For the compound `C=C[C@]1(C)C[C@@H](OC(=O)CSC(C)(C)CNC(=O)[C@H](N)C(C)C)[C@]2(C)[C@H](C)CC[C@]3(CCC(=O)[C@H]32)[C@@H](C)[C@@H]1O.Cl` [Valnemulin HCl], the “% Phosphatase Activity (compared to DMSO) PRL-2” value at recombinant PRL-2 came to 95%. For the same compound, at recombinant PRL-1, the “% Phosphatase Activity (compared to DMSO) PRL-1” value was determined as 86%. Also, the “% Phosphatase Activity (compared to DMSO) PRL-3” value at recombinant PRL-3 came to 80%.
The like results for `CCCCC(=O)N(Cc1ccc(-c2ccccc2-c2nnn[nH]2)cc1)[C@H](C(=O)O)C(C)C` [Valsartan] were, in that order, 115%, 86% and 101%.
Regarding `CN[C@H](CC(C)C)C(=O)N[C@H]1C(=O)N[C@@H](CC(N)=O)C(=O)N[C@H]2C(=O)N[C@H]3C(=O)N[C@H](C(=O)N[C@H](C(=O)O)c4cc(O)cc(O)c4-c4cc3ccc4O)[C@H](O)c3ccc(c(Cl)c3)Oc3cc2cc(c3O[C@@H]2O[C@H](CO)[C@@H](O)[C@H](O)[C@H]2O[C@H]2C[C@](C)(N)[C@H](O)[C@H](C)O2)Oc2ccc(cc2Cl)[C@H]1O` [Vancomycin HCl], the “% Phosphatase Activity (compared to DMSO) PRL-2” value on recombinant PRL-2 was found to be 109%. Further, the “% Phosphatase Activity (compared to DMSO) PRL-1” value at recombinant PRL-1 is on record as 99%. Also, the “% Phosphatase Activity (compared to DMSO) PRL-3” value on recombinant PRL-3 turned out to be 99%.
`COc1cc2/c(=N/c3ccc(Br)cc3F)nc[nH]c2cc1OCC1CCN(C)CC1` [Vandetanib (ZD6474)]: the “% Phosphatase Activity (compared to DMSO) PRL-2” value on recombinant PRL-2 is listed as 98%. Moreover, the “% Phosphatase Activity (compared to DMSO) PRL-1” value on recombinant PRL-1 stood at 96%. The “% Phosphatase Activity (compared to DMSO) PRL-3” value on recombinant PRL-3 was determined as 77%.
On the same counts, the results for `CCCc1nc(C)c2c(=O)[nH]c(-c3cc(S(=O)(=O)N4CCN(CC)CC4)ccc3OCC)nn12.Cl.O.O.O` [Vardenafil HCl Trihydrate] are 98%, 98% and 84%.
In the case of `C[C@@H]1COC(Nc2ccc3ncnc(Nc4ccc(OCc5nccs5)c(Cl)c4)c3c2)=N1` [Varlitinib], the “% Phosphatase Activity (compared to DMSO) PRL-2” value on recombinant PRL-2 came out at 142%. Besides, at recombinant PRL-1, the “% Phosphatase Activity (compared to DMSO) PRL-1” value is given as 126%. Besides, the “% Phosphatase Activity (compared to DMSO) PRL-3” value on recombinant PRL-3 is 132%.
The like results for `Cl.Cl.Clc1ccc(Nc2nnc(Cc3ccncc3)c3ccccc23)cc1` [Vatalanib (PTK787) 2HCl] were, in that order, 96%, 109% and 72%.
In the case of `CC(=O)O[C@H]1C[C@@H]2CC[C@@H]3[C@H](CC[C@@]4(C)[C@H]3C[C@H]([N+]3(C)CCCCC3)[C@@H]4OC(C)=O)[C@@]2(C)C[C@@H]1N1CCCCC1` [Vecuronium Bromide], the “% Phosphatase Activity (compared to DMSO) PRL-2” value on recombinant PRL-2 was 100%. Further, at recombinant PRL-1, the “% Phosphatase Activity (compared to DMSO) PRL-1” value stood at 103%. On recombinant PRL-3, the “% Phosphatase Activity (compared to DMSO) PRL-3” value turned out to be 87%.
